According to BindingDB's records for patent US20240116947 (Chiesi Farmaceutici, 2024):

Target: T1, TGF-beta receptor type-1 (Homo sapiens, UniProt P36897)
T1 sequence (P36897 whole entry): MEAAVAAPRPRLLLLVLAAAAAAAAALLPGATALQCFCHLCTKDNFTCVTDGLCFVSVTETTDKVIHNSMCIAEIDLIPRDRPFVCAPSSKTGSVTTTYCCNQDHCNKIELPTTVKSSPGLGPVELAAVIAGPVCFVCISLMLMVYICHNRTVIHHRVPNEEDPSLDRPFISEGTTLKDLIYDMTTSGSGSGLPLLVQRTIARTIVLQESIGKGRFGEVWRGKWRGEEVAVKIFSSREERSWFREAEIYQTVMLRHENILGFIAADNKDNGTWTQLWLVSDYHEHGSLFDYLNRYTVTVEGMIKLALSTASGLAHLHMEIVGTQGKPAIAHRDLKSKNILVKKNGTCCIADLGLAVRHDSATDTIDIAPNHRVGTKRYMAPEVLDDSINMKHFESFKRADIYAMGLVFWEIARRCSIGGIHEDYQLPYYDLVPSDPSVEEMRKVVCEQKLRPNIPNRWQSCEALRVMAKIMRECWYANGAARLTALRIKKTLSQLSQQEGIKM
Test: Enzymatic Activity Assay
Experimental: The enzymatic activity of compounds of the present invention was monitored measuring the formation of ADP using the ADP-GLO Kinases assay. Following the incubation of the purified enzyme, a substrate and ATP, the produced ADP was converted into ATP, which in turn was converted into light by Ultra-Glo Luciferase. The luminescent signal positively correlated with ADP amount and kinase activity. […] All reactions/incubations were performed at 25° C. Compound and ALK5 kinase were mixed and incubated for 15 mins. […] After an incubation of 150 min, the reaction was stopped, and ADP production detected with ADP-Glo kit according to manufacturer's indications. The assay was performed in 384-well format and was validated using a selection of reference compounds that was tested in 11 point concentration-response curve.

## O=C(CCN(C1COC1)C1COC1)Nc1cc(N2CCOc3cnc(-c4cc(Cl)ccc4F)cc32)ccn1 [US20240116947, Example 21]
  IC50: < 1 nM
